US20230146923A1, “COMPOSITIONS AND METHODS FOR INHIBITION AND TARGETING OF P97” (California Institute of Technology, priority 2021, published 2023)
Like-named read-outs stand apart in the source and are kept apart here.

How the values were obtained:
HCT116 cells [1] = assay: Temporal label-free (LFQ) proteomics of HCT116 cells treated with p97 inhibitors; type: cell-based; settings: 4 μM UPCDC-30245, 2 μM CB-5083, 4 μM NMS-873
Description: This percentage was calculated by dividing the number of overlapping proteins by the sum of all DE proteins identified by p97 KD and/or inhibitor treatment. HCT116 cells were treated with 4 μM UPCDC-30245, 2 μM CB-5083 or 4 μM of NMS-874 for the indicated time points, n=2.
To explore the temporal proteomic profiles of p97 inhibition, HCT116 cells were treated with DMSO, and p97 inhibitors (CB-5083, NMS-873 or UPCDC-30245) for 2 h, 6 h, 10 h, 18 h, or 24 h in duplicate. […] To compare the proteomic profile of p97 shRNA KD to that of different p97 inhibitors, DE proteins identified through p97 KD were compared with those identified under different inhibitor treatments (p<0.05) at each time point. […] To reveal the cellular effects common to both p97 KD and p97 inhibitors, overlapping DE proteins across different timepoints for each inhibitor treatment were combined.

cyclin D1 [2] = assay: Cyclin D1 level and degradation (co-treatment, CHX chase); type: cell-based; settings: HCT116, 6 hours; MG132 1 μM, CB-5083 2 μM, Baf A1 10 μM
Description: FIGS. 12A-12C depicts Western blots detecting the effects of p97 inhibitors and MG132 on cell cycle proteins in HT29 and HCT116 cells. […] Then, 50 μM of CHX was added and cells were collected at 0 h, 0.5 h, and 1 h. FIG. 12C depicts half-life of cyclin D1 in HCT116 cells. HCT116 cells were pre-treated with 5 μM of CB-5083 or DMSO for 30 minutes before adding 50 μM of CHX, and cells were collected at 0, 10, 20, 30 min (n=3), * indicates p<0.05 according to unpaired t-test.
(§1) The concentration of MG132, CB-5083 and Baf A1 was 1 μM, 2 μM and 10 μM, respectively. […] FIGS. 13D-13E depict the half-life of Securin in HCT116 cells. HCT116 cells were treated with 1 μM of MG132, 2 μM of CB-5083, 1 μM of MG132 plus 2 μM of CB-5083 or DMSO. […] Cells were pretreated with […] for 1 h. […] For FIGS. 13B-13G, D, B, M, C and N represents DMSO, Baf A1, MG132, CB-5083 and NMS-873, respectively. Data are shown as mean±SD. Statistical analysis was performed using one-way ANOVA.
Cells were co-treated with CB-5083 and either the proteasome inhibitor MG132 or the autophagy inhibitor Bafilomycin A1 (Baf A1).

HCT116 cells [3] = assay: TMT labeling proteomics of HCT116 cells treated with MG132, CB-5083 or NMS-873; type: cell-based; settings: for Log2 FC Baculoviral IAP repeat-containing protein 5 (BIRC5) / Log2 FC Cell division cycle protein 20 homolog (CDC20) / Log2 FC F-box only protein 5 (FBXO5) / Log2 FC G1/S-specific cyclin-D1 (CCND1) / Log2 FC Geminin (GMNN) / Log2 FC M-phase inducer phosphatase 2 (CDC25B) / Log2 FC Mitotic checkpoint serine/threonine-protein kinase BUB1 (BUB1) / Log2 FC Myc proto-oncogene protein (MYC) / Log2 FC Origin recognition complex subunit 6 (ORC6) / Log2 FC Ribonucleoside-diphosphate reductase subunit M2 (RRM2) / Log2 FC Securin (PTTG1): compound vs DMSO; for Four XBP1 activated genes/proteins (DNAJB11, SRPR, SRPRB, SYVN1), Log2FC: HCT116, 24 h of treatment, p<0.05
Description: HCT116 cells were treated with 1 μM MG132, 2 μM CB-5083 or 4 μM of NMS-874 for 6 h or 24 h, n=2. […] M, C and N represents MG132, CB-5083 and NMS-873, respectively.
As a step toward understanding the differential effects of inhibiting p97 and the proteasome in cancer treatment, the effect of inhibiting p97 was compared to proteasome inhibition using tandem mass tag (TMT) 16-plexed labelling. This technique allowed for capture of alterations in the proteome after exposure to MG132 (proteasome inhibitor) and p97 inhibitors (CB-5083 and NMS-873). […] Samples were pooled together, fractionated into 8 fractions using high pH reverse chromatography, and analyzed using the highly accurate RTS-SPS-MS3 method.

HCT116 cells [4] = assay: Cell cycle analysis (DNA content); type: cell-based; settings: HCT116, 24 h
Description: FIG. 7A depicts cell cycle analysis of HCT116 cells after 24 h of treatments with DMSO, 1 μM of MG132 (MG) or 2 μM of CB-5083. […] Data were from TMT labeling proteomics. M, C and N indicates MG132, CB-5083 and NMS-873 treatment, respectively. […] HCT116 cells were treated for 24 h with DMSO, 1 μM of MG132 (MG), 2 μM of CB-5083 (CB) or 4 μM of NMS-873 (NMS), n=3.

Securin [5] = assay: Securin degradation (CHX chase) in HCT116 cells; type: cell-based; settings: HCT116, pretreated with MG132 for 1 h, then 2 μM CB-5083 with 50 μM CHX
Description: as §1

HCT116 tumor cells = settings: mouse xenograft models implanted with HCT116 tumor cells, ref [22]; cited from earlier work
[6] = tested on: cancer cell proliferation; settings: ref [22]; cited from earlier work
Securin [7] = settings: HT29, pretreated with MG132 for 1 h, then 2 μM CB-5083 with 50 μM CHX
Description: as §1

HCT116 cells [8] = settings: HCT116, 6 h treatment, 2 μM CB-5083
Description: as §1

cyclin D1 [9] = settings: Parisi et al. [71]; cited from earlier work

For `CC(C)N1CCN(CCNC2CCN(c3cccc(-c4cc5cc(F)ccc5[nH]4)c3)CC2)CC1` [UPCDC-30245, 1-(3-(5-Fluoro-1H-indol-2-yl)phenyl)-N-(2-(4-isopropylpiperazin-1-yl)ethyl)piperidin-4-amine], the “UPR proteins and those linked to protein processing in the ER” value (“UPR proteins and those linked” below) (HCT116 cells [1]) was “not”.

In the case of `CO/C1=C\C(C)=C\[C@@H](C)[C@@H](O)[C@@H](C)C/C(C)=C/C=C/[C@H](OC)[C@@H]([C@@H](C)[C@@H](O)[C@H](C)[C@@]2(O)C[C@@H](O)[C@H](C)[C@@H](C(C)C)O2)OC1=O` [Baf A1, Bafilomycin A1], the “Effect on CB-5083 mediated cyclin D1 downregulation (co-treatment)” value (cyclin D1 [2]) is reported as “no effect on cyclin D1 levels”.

With `Cc1cc(OCc2nnc(SC3CCCC3)n2-c2cccnc2)ccc1-c1ccc(S(C)(=O)=O)cc1` [NMS-873, 3-[3-cyclopentylsulfanyl-5-[[3-methyl-4-(4-methylsulfonylphenyl)phenoxy]methyl]-1,2,4-triazol-4-yl]pyridine] the “UPR proteins and those linked” value (HCT116 cells [1]) was “upregulated”, the “Log2 FC Baculoviral IAP repeat-containing protein 5 (BIRC5)” value (HCT116 cells [3]; HCT116, 6 h treatment) was −0.5 and the “Log2 FC Cell division cycle protein 20 homolog (CDC20)” value (HCT116 cells [3]; HCT116, 6 h treatment) was −0.6. For the same molecule, the “Log2 FC F-box only protein 5 (FBXO5)” value (HCT116 cells [3]; HCT116, 6 h treatment) was −1.1, the “Log2 FC G1/S-specific cyclin-D1 (CCND1)” value (HCT116 cells [3]; HCT116, 6 h treatment) was −1.8 and the “Log2 FC Geminin (GMNN)” value (HCT116 cells [3]; HCT116, 6 h treatment) was −0.6. The “Log2 FC M-phase inducer phosphatase 2 (CDC25B)” value (HCT116 cells [3]; HCT116, 6 h treatment) was −1.6, the “Log2 FC Mitotic checkpoint serine/threonine-protein kinase BUB1 (BUB1)” value (HCT116 cells [3]; HCT116, 6 h treatment) was −0.4 and the “Log2 FC Myc proto-oncogene protein (MYC)” value (HCT116 cells [3]; HCT116, 6 h treatment) was −1.1. The “Log2 FC Origin recognition complex subunit 6 (ORC6)” value (HCT116 cells [3]; HCT116, 6 h treatment) was −0.5, the “Log2 FC Ribonucleoside-diphosphate reductase subunit M2 (RRM2)” value (HCT116 cells [3]; HCT116, 6 h treatment) was −0.3 and the “Log2 FC Securin (PTTG1)” value (HCT116 cells [3]; HCT116, 6 h treatment) was −1.2. For the same molecule, the “Four XBP1 activated genes/proteins (DNAJB11, SRPR, SRPRB, SYVN1), Log2FC” value (HCT116 cells [3]) was “significantly upregulated”, the “Log2 FC Baculoviral IAP repeat-containing protein 5 (BIRC5)” value (HCT116 cells [3]; HCT116, 24 h treatment) was −2.0 and the “Log2 FC Cell division cycle protein 20 homolog (CDC20)” value (HCT116 cells [3]; HCT116, 24 h treatment) was −2.8. The “Log2 FC F-box only protein 5 (FBXO5)” value (HCT116 cells [3]; HCT116, 24 h treatment) was −2.4, the “Log2 FC G1/S-specific cyclin-D1 (CCND1)” value (HCT116 cells [3]; HCT116, 24 h treatment) was −3.2 and the “Log2 FC Geminin (GMNN)” value (HCT116 cells [3]; HCT116, 24 h treatment) was −1.8. For the same molecule, the “Log2 FC M-phase inducer phosphatase 2 (CDC25B)” value (HCT116 cells [3]; HCT116, 24 h treatment) was −2.2, the “Log2 FC Mitotic checkpoint serine/threonine-protein kinase BUB1 (BUB1)” value (HCT116 cells [3]; HCT116, 24 h treatment) was −2.1 and the “Log2 FC Myc proto-oncogene protein (MYC)” value (HCT116 cells [3]; HCT116, 24 h treatment) was −1.1. The “Log2 FC Origin recognition complex subunit 6 (ORC6)” value (HCT116 cells [3]; HCT116, 24 h treatment) was −0.6, the “Log2 FC Ribonucleoside-diphosphate reductase subunit M2 (RRM2)” value (HCT116 cells [3]; HCT116, 24 h treatment) was −2.7 and the “Log2 FC Securin (PTTG1)” value (HCT116 cells [3]; HCT116, 24 h treatment) was −2.9.

For `Cc1cc2c(C(N)=O)cccc2n1-c1nc2c(c(NCc3ccccc3)n1)COCC2` [CB-5083], the “UPR proteins and those linked” value (HCT116 cells [1]) was “upregulated”, the “Log2 FC Baculoviral IAP repeat-containing protein 5 (BIRC5)” value (HCT116 cells [3]; HCT116, 6 h treatment) was −0.5 and the “Log2 FC Cell division cycle protein 20 homolog (CDC20)” value (HCT116 cells [3]; HCT116, 6 h treatment) was −0.4. For the same molecule, the “Log2 FC F-box only protein 5 (FBXO5)” value (HCT116 cells [3]; HCT116, 6 h treatment) was −0.8, the “Log2 FC G1/S-specific cyclin-D1 (CCND1)” value (HCT116 cells [3]; HCT116, 6 h treatment) was −1.4 and the “Log2 FC Geminin (GMNN)” value (HCT116 cells [3]; HCT116, 6 h treatment) was −0.4. For the same molecule, the “Log2 FC M-phase inducer phosphatase 2 (CDC25B)” value (HCT116 cells [3]; HCT116, 6 h treatment) was −1.1, the “Log2 FC Mitotic checkpoint serine/threonine-protein kinase BUB1 (BUB1)” value (HCT116 cells [3]; HCT116, 6 h treatment) was −0.3 and the “Log2 FC Myc proto-oncogene protein (MYC)” value (HCT116 cells [3]; HCT116, 6 h treatment) was −0.5. For the same molecule, the “Log2 FC Origin recognition complex subunit 6 (ORC6)” value (HCT116 cells [3]; HCT116, 6 h treatment) was −0.4, the “Log2 FC Ribonucleoside-diphosphate reductase subunit M2 (RRM2)” value (HCT116 cells [3]; HCT116, 6 h treatment) was −0.2 and the “Log2 FC Securin (PTTG1)” value (HCT116 cells [3]; HCT116, 6 h treatment) was −0.9. For the same molecule, the “Four XBP1 activated genes/proteins (DNAJB11, SRPR, SRPRB, SYVN1), Log2FC” value (HCT116 cells [3]) was “significantly upregulated”, the “Log2 FC Baculoviral IAP repeat-containing protein 5 (BIRC5)” value (HCT116 cells [3]; HCT116, 24 h treatment) was −0.8 and the “Log2 FC Cell division cycle protein 20 homolog (CDC20)” value (HCT116 cells [3]; HCT116, 24 h treatment) was −1.5. For the same molecule, the “Log2 FC F-box only protein 5 (FBXO5)” value (HCT116 cells [3]; HCT116, 24 h treatment) was −1.0, the “Log2 FC G1/S-specific cyclin-D1 (CCND1)” value (HCT116 cells [3]; HCT116, 24 h treatment) was −2.0 and the “Log2 FC Geminin (GMNN)” value (HCT116 cells [3]; HCT116, 24 h treatment) was −1.1. The “Log2 FC M-phase inducer phosphatase 2 (CDC25B)” value (HCT116 cells [3]; HCT116, 24 h treatment) was −1.6, the “Log2 FC Mitotic checkpoint serine/threonine-protein kinase BUB1 (BUB1)” value (HCT116 cells [3]; HCT116, 24 h treatment) was −1.1 and the “Log2 FC Myc proto-oncogene protein (MYC)” value (HCT116 cells [3]; HCT116, 24 h treatment) was −0.7. For the same molecule, the “Log2 FC Origin recognition complex subunit 6 (ORC6)” value (HCT116 cells [3]; HCT116, 24 h treatment) was −0.3, the “Log2 FC Ribonucleoside-diphosphate reductase subunit M2 (RRM2)” value (HCT116 cells [3]; HCT116, 24 h treatment) was −1.1 and the “Log2 FC Securin (PTTG1)” value (HCT116 cells [3]; HCT116, 24 h treatment) was −1.9. For the same molecule, the “Potency in reducing G0/G1 and increasing G2/M distribution compared to MG132” value (HCT116 cells [4]) was “less potent”, the “Distribution of cells in the G0/G1 phase” value (HCT116 cells [4]; 1 μM MG132, 2 μM CB-5083) was “reduced distribution in the G0/G1 phase” and the “Degradation of Securin after MG132 pretreatment” value (Securin [5]) was “slightly accelerated the degradation of Securin”. For the same molecule, the Tumor growth (HCT116 tumor cells) was “efficacious in inhibiting tumor growth”, the Cancer cell proliferation [6] was “strongly inhibited cancer cell proliferation” and the “Degradation of Securin after MG132 pretreatment” value (Securin [7]) was “slightly accelerated the degradation of Securin”. For the same molecule, the “RNA level of CDC20” value (HCT116 cells [8]) was “downregulated”.

In the case of `c1ccc(CNc2nc(NCc3ccccc3)c3ccccc3n2)cc1` [DBeQ, N^2,N^4-Bis(phenylmethyl)-2,4-quinazolinediamine], the “Cyclin D1 degradation” value (cyclin D1 [9]) is given as “promotes cyclin D1 degradation”.
